Results taken from ChEMBL document CHEMBL3885861, “Open TG-GATES”.

Organism: Rattus norvegicus
Assay: Open TG-GATES - Regimen: Daily Repeat
Assay type: toxicity, organism-based, Sprague-Dawley
Set-up: regimen Daily Repeat, gender Male, age 6 weeks
Settings: in vivo, po, route gavage; for Bas / Eos / Fbg / Hb / Ht / Lym / MCHC / MCV / Mono / PT / Plat / RBC / Ret / WBC / Neu: tissue Blood; for ALP / ALT / AST / CRE / Ca / Cl / DBIL / GLC / IP / K / LDH / Na / PL / RALB / TBIL / TC / TG / TP / gamma-GTP / BUN: tissue Plasma
[1] = 0 mg/kg, 72 h, dose level Control, time 3 day
[2] = 0 mg/kg, […], dose level Control, time 7 day
[3] = 0 mg/kg, […], dose level Control, time 14 day
[4] = 0 mg/kg, […], dose level Control, time 28 day
[5] = 100 mg/kg, 72 h, dose level Low, time 3 day
[6] = 100 mg/kg, […], dose level Low, time 7 day
[7] = 100 mg/kg, […], dose level Low, time 14 day
[8] = 100 mg/kg, […], dose level Low, time 28 day
[9] = 300 mg/kg, 72 h, dose level Middle, time 3 day

## O=C(O)c1cccnc1 [NIACIN]
[1]
  TERMINAL_BW: 241.1 g
  Bas: 0%
  Eos: 0.8%
  Fbg: 321 mg/dL
  Hb: 12.8 g/dL
  Ht: 38.2%
  Lym: 81.2%
  MCHC: 33.5%
  MCV: 62.4 fL
  Mono: 3%
  PT: 15.9 s
  Plat: 125.7 x10_4/uL
  RBC: 612.4 x10_4/ul
  Ret: 7.8%
  WBC: 116.2 x10_2/uL
  ALP: 1807.6 IU/L
  ALT: 48 IU/L
  AST: 73.2 IU/L
  CRE: 0.2 mg/dL
  Ca: 10.7 mg/dL
  Cl: 104.2 meq/L
  DBIL: 0 mg/dL
  GLC: 201.8 mg/dL
  IP: 7.7 mg/dL
  K: 4.4 meq/L
  LDH: 161.4 IU/L
  Na: 139.2 meq/L
  PL: 151.6 mg/dL
  RALB: 3.1 g/dL
  TBIL: 0 mg/dL
  TC: 80 mg/dL
  TG: 92.8 mg/dL
  TP: 5.6 g/dL
  gamma-GTP: 1.4 IU/L
[2]
  TERMINAL_BW: 268.8 g
  Bas: 0%
  Eos: 1%
  Fbg: 334.8 mg/dL
  Ht: 41.3%
  Lym: 78.2%
  MCHC: 34.3%
  Mono: 3.2%
  Neu: 16.8%
  PT: 16.5 s
  Plat: 116.1 x10_4/uL
  RBC: 681 x10_4/ul
  Ret: 5.5%
  WBC: 120.8 x10_2/uL
  ALP: 1431.4 IU/L
  ALT: 37.2 IU/L
  AST: 67 IU/L
  CRE: 0.1 mg/dL
  Ca: 10.8 mg/dL
  Cl: 105.2 meq/L
  DBIL: 0 mg/dL
  GLC: 190.4 mg/dL
  IP: 7.4 mg/dL
  K: 4.2 meq/L
  LDH: 155.6 IU/L
  Na: 139.8 meq/L
  PL: 160.4 mg/dL
  RALB: 3 g/dL
  TBIL: 0 mg/dL
  TC: 78.6 mg/dL
  TG: 130 mg/dL
  TP: 5.7 g/dL
  gamma-GTP: 1.6 IU/L
[3]
  TERMINAL_BW: 327.5 g
  Bas: 0%
  Eos: 1%
  Fbg: 329 mg/dL
  Ht: 41.5%
  Lym: 77.8%
  MCHC: 34.2%
  MCV: 60.4 fL
  Mono: 2.6%
  Neu: 17%
  PT: 15.9 s
  Plat: 115.7 x10_4/uL
  RBC: 688.8 x10_4/ul
  Ret: 5.1%
  WBC: 127.5 x10_2/uL
  ALP: 1595.6 IU/L
  AST: 68 IU/L
  CRE: 0.2 mg/dL
  Ca: 10.6 mg/dL
  Cl: 104.2 meq/L
  DBIL: 0 mg/dL
  GLC: 198.2 mg/dL
  IP: 7.1 mg/dL
  K: 4 meq/L
  LDH: 163.6 IU/L
  Na: 138 meq/L
  PL: 156 mg/dL
  RALB: 3.1 g/dL
  TBIL: 0.006 mg/dL
  TC: 75.6 mg/dL
  TG: 144.2 mg/dL
  TP: 5.9 g/dL
  gamma-GTP: 1 IU/L
[4]
  TERMINAL_BW: 405.7 g
  Bas: 0%
  Eos: 1.2%
  Fbg: 331.4 mg/dL
  Hb: 15 g/dL
  Ht: 42.7%
  Lym: 80.6%
  MCHC: 35.2%
  MCV: 56.6 fL
  Mono: 2%
  Neu: 15%
  PT: 16.5 s
  Plat: 89.6 x10_4/uL
  RBC: 754.4 x10_4/ul
  Ret: 3%
  WBC: 119.1 x10_2/uL
  ALP: 1086.6 IU/L
  ALT: 37.4 IU/L
  AST: 63.8 IU/L
  BUN: 17.8 mg/dL
  CRE: 0.2 mg/dL
  Ca: 10.1 mg/dL
  Cl: 106.4 meq/L
  DBIL: 0 mg/dL
  GLC: 214.4 mg/dL
  IP: 6.9 mg/dL
  K: 4.2 meq/L
  LDH: 150.6 IU/L
  Na: 142.8 meq/L
  PL: 149.4 mg/dL
  RALB: 3.1 g/dL
  TBIL: 0.012 mg/dL
  TC: 76.6 mg/dL
  TG: 121 mg/dL
  TP: 5.9 g/dL
  gamma-GTP: 2.4 IU/L
[5]
  TERMINAL_BW: 239.7 g
  Bas: 0%
  Eos: 1.2%
  Fbg: 317.2 mg/dL
  Hb: 13.7 g/dL
  Ht: 40.5%
  Lym: 70.2%
  MCV: 63.5 fL
  Mono: 4%
  Neu: 23.2%
  Plat: 107.5 x10_4/uL
  RBC: 637 x10_4/ul
  Ret: 6.9%
  WBC: 128.4 x10_2/uL
  ALP: 1717.8 IU/L
  ALT: 49 IU/L
  AST: 79.2 IU/L
  BUN: 16 mg/dL
  CRE: 0.1 mg/dL
  Ca: 10.8 mg/dL
  Cl: 104.2 meq/L
  DBIL: 0 mg/dL
  GLC: 199.8 mg/dL
  IP: 7.4 mg/dL
  K: 3.9 meq/L
  LDH: 171.8 IU/L
  Na: 139.2 meq/L
  PL: 163.8 mg/dL
  RALB: 3.1 g/dL
  TBIL: 0 mg/dL
  TC: 84.2 mg/dL
  TG: 110.8 mg/dL
  TP: 5.8 g/dL
  gamma-GTP: 1.2 IU/L
[6]
  TERMINAL_BW: 273.1 g
  Bas: 0%
  Eos: 1%
  Fbg: 316 mg/dL
  Hb: 13.5 g/dL
  Ht: 39.5%
  Lym: 82%
  MCHC: 34.1%
  MCV: 60.8 fL
  Mono: 3%
  Neu: 12.8%
  PT: 16 s
  Plat: 109.3 x10_4/uL
  RBC: 650 x10_4/ul
  Ret: 5.9%
  WBC: 109.2 x10_2/uL
  ALP: 1740.2 IU/L
  ALT: 44.4 IU/L
  AST: 69 IU/L
  BUN: 17.2 mg/dL
  CRE: 0.2 mg/dL
  Ca: 10.7 mg/dL
  Cl: 104.8 meq/L
  DBIL: 0 mg/dL
  GLC: 171.4 mg/dL
  IP: 7.3 mg/dL
  K: 4.7 meq/L
  LDH: 141 IU/L
  Na: 138.8 meq/L
  PL: 145 mg/dL
  RALB: 2.9 g/dL
  TBIL: 0 mg/dL
  TC: 66.6 mg/dL
  TG: 150 mg/dL
  TP: 5.5 g/dL
  gamma-GTP: 1.4 IU/L
[7]
  TERMINAL_BW: 326.9 g
  Bas: 0%
  Eos: 1%
  Fbg: 330.8 mg/dL
  Ht: 41.5%
  Lym: 75.2%
  MCHC: 34%
  Mono: 2.6%
  Neu: 20%
  PT: 15.8 s
  Plat: 107.6 x10_4/uL
  RBC: 685 x10_4/ul
  Ret: 4.7%
  WBC: 102.7 x10_2/uL
  ALP: 1532.6 IU/L
  ALT: 42.8 IU/L
  AST: 73.6 IU/L
  BUN: 17 mg/dL
  CRE: 0.2 mg/dL
  Ca: 10.5 mg/dL
  Cl: 104.6 meq/L
  DBIL: 0 mg/dL
  GLC: 196.4 mg/dL
  IP: 6.4 mg/dL
  K: 4 meq/L
  LDH: 209 IU/L
  Na: 138.4 meq/L
  PL: 144.4 mg/dL
  RALB: 3 g/dL
  TBIL: 0.002 mg/dL
  TC: 66.8 mg/dL
  TG: 150.8 mg/dL
  TP: 5.8 g/dL
  gamma-GTP: 1.4 IU/L
[8]
  TERMINAL_BW: 387.9 g
  Bas: 0%
  Eos: 1%
  Fbg: 330.4 mg/dL
  Hb: 15.2 g/dL
  Ht: 43.1%
  Lym: 83.4%
  MCHC: 35.3%
  MCV: 56 fL
  Mono: 2.4%
  Neu: 11.8%
  PT: 16.5 s
  Plat: 102.2 x10_4/uL
  RBC: 770 x10_4/ul
  Ret: 2.8%
  WBC: 117.4 x10_2/uL
  ALP: 1249.8 IU/L
  ALT: 39.8 IU/L
  AST: 64.6 IU/L
  BUN: 18.2 mg/dL
  CRE: 0.2 mg/dL
  Ca: 10.4 mg/dL
  Cl: 107 meq/L
  DBIL: 0 mg/dL
  GLC: 192.8 mg/dL
  IP: 6.5 mg/dL
  K: 4.2 meq/L
  LDH: 129.4 IU/L
  Na: 143.4 meq/L
  PL: 147.6 mg/dL
  RALB: 3.1 g/dL
  TBIL: 0.014 mg/dL
  TC: 70.6 mg/dL
  TG: 158.8 mg/dL
  TP: 6 g/dL
  gamma-GTP: 2 IU/L
[9]
  TERMINAL_BW: 241.8 g
  Bas: 0%
